Patent US20190216886A1, “Topical Compositions And Methods For Treating Wounds” (priority 2014, published 2019)

Legend:
[1] = test system: S. pyogenes; assay: in vitro zone inhibition (disk diffusion) study; type: cell-based, Streptococcus pyogenes; settings: for Mean inhibition diameter: S. pyogenes (n = 6), 6 mm paper disks on Mueller Hinton Agar; for antimicrobial activity, in words: S. pyogenes, zone inhibition
Experimental: (§1) In vitro culture and sensitivity studies were performed on common microbes seen in acute and stubborn chronic wound cases. The particular microbes tested included streptococcus pyogenes, staphylococcus aureus, methicillin resistant staphylococcus aureus (MRSA) and, a fungus, candida albicans. Ten different strains of MRSA bacteria obtained from infected hospital patients were tested.
(§2) The different microbes were inoculated on Mueller Hinton Agar media in culture plates. […] However, genetically mutated resistant strains of staphylococcus have evolved and are now the cause of numerous infections because of their resistant nature to most antibiotics.

[2] = test system: C. albicans; assay: in vitro zone inhibition (disk diffusion) study; type: cell-based, Candida albicans; settings: for Mean inhibition diameter: C. albicans (n = 6), 6 mm paper disks on Mueller Hinton Agar; for antimicrobial activity, in words: C. albicans (fungi), zone inhibition
Experimental: as §1, §2

[3] = test system: S. aureus; assay: in vitro zone inhibition (disk diffusion) study; type: cell-based, Staphylococcus aureus; settings: for Mean inhibition diameter: S. aureus (n = 6), 6 mm paper disks on Mueller Hinton Agar; for antimicrobial activity, in words: non-resistant S. aureus, zone inhibition
Experimental: as §1, §2

[4] = test system: MRSA; assay: in vitro zone inhibition (disk diffusion) study; type: cell-based, methicillin resistant staphylococcus aureus; settings: for Mean inhibition diameter: MRSA (10 strains, n = 30), 6 mm paper disks on Mueller Hinton Agar; for zone of inhibition, visual result: MRSA strain number 11, FIG. 7; for antimicrobial activity, in words: MRSA, zone inhibition
Experimental: as §1, §2

[5] = test system: tinea pedis infection; assay: treatment of a patient with chronic tinea pedis; type: in vivo, human; settings: person, oral, after a month's treatment
Experimental: Twenty patients with a variety of chronic wound conditions that included diabetic foot ulcers, decubitus pressure ulcers, surgical wounds, toe fungus were treated for eight weeks by wound care physicians with a compounded topical pharmaceutical composition made from compendial ingredients.
Specifically, the test pharmaceutical composition for these studies was prepared by compounding: 25 parts 1% silver sulfadiazine cream: 25 parts 20% zinc oxide ointment; 15 parts triple antibiotic ointment; 25 parts 2% lidocaine viscous; 5 parts Vitamin E Oil (as 200 IU/gm final); and 5 parts Coenzyme Q10 (as 15 mg/gm final).
A case of tinea pedis was also reported in one of the patients. A person who had been suffering from chronic tinea pedis infection (athlete's foot) for over 10 months had tried numerous over-the-counter remedies with no success. They were prescribed the oral antibiotic terbinafine. […] The terbinafine was discontinued and the patient was placed on the test pharmaceutical formulation of the invention on Apr. 14, 2014. They returned for a follow-up with their physician about one week later on Apr. 22, 2014. […] The patient returned for a second follow up on Apr. 29, 2014 (FIG. 5B). The physician's report about 2 weeks after beginning treatment states: “Patient reports foot no longer itchy. Skin healing. […] Foot dry, healthy new tissue visualized”. […]

Cc1onc(-c2ccccc2)c1C(=O)N[C@@H]1C(=O)N2[C@@H]1SC(C)(C)[C@@H]2C(=O)O [Oxacillin, oxacillin]
Mean inhibition diameter [1]: 30.2 mm
antimicrobial activity, in words [1]: showed antimicrobial activity
Mean inhibition diameter [2]: 0.0 mm
Mean inhibition diameter [3]: 20.3 mm
antimicrobial activity, in words [3]: showed antimicrobial activity
Mean inhibition diameter [4]: 0.0 mm
zone of inhibition, visual result [4]: lack of any zone inhibition

CN[C@H](CC(C)C)C(=O)N[C@H]1C(=O)N[C@@H](CC(N)=O)C(=O)N[C@H]2C(=O)N[C@H]3C(=O)N[C@H](C(=O)N[C@H](C(=O)O)c4cc(O)cc(O)c4-c4cc3ccc4O)[C@H](O)c3ccc(c(Cl)c3)Oc3cc2cc(c3O[C@@H]2O[C@H](CO)[C@@H](O)[C@H](O)[C@H]2O[C@H]2C[C@](C)(N)[C@H](O)[C@H](C)O2)Oc2ccc(cc2Cl)[C@H]1O [Vancomycin, vancomycin]
Mean inhibition diameter [1]: 22.2 mm
antimicrobial activity, in words [1]: potent activity
antimicrobial activity, in words [2]: not effective
Mean inhibition diameter [2]: 0.0 mm
Mean inhibition diameter [3]: 17.3 mm
antimicrobial activity, in words [3]: potent activity
Mean inhibition diameter [4]: 18.9 mm
zone of inhibition, visual result [4]: clear circular area of inhibition zone
antimicrobial activity, in words [4]: potent activity

COc1cccc(OC)c1C(=O)N[C@@H]1C(=O)N2[C@@H]1SC(C)(C)[C@@H]2C(=O)O [methicillin]
antimicrobial activity, in words [2]: no activity
antimicrobial activity, in words [4]: no activity

CN(C/C=C/C#CC(C)(C)C)Cc1cccc2ccccc12 [terbinafine]
tinea pedis infection outcome [5]: no sign of reduction in the infection
